The target in one data set is T1, serotonin 1A receptor (Rattus norvegicus, UniProt P19327).
T1 construct: To the receptor fraction of the hippocampus were added a test compound and 0.5 nM of [^3H]; 8-hydroxy-dipropylaminotetralin; from tissue; host or cells: rat hippocampus membrane fraction
T1 sequence (P19327 1-422): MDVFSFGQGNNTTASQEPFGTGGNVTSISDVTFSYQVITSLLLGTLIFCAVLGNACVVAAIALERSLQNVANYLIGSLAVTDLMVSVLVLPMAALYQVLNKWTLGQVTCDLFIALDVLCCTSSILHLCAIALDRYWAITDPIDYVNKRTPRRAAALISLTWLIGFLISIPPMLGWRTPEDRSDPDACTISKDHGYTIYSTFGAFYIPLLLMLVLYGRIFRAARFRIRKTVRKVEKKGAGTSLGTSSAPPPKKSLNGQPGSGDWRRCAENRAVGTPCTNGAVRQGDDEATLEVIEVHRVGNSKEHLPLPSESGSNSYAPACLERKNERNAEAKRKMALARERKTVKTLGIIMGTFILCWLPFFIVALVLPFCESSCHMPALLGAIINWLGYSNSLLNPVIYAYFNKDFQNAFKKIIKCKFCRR
In words: Binding test on [3H] 8-hydroxy-dipropylaminotetralin, hippocampus receptor fraction. The arrangement: species or system SD rats. The note with it: rat hippocampus receptor fraction, 0.5 nM [3H] 8-OH-DPAT, room temperature 30 min; read-out: 5HT1.

For the next data set, the target named is T2, serotonin 2 receptor (Rattus norvegicus, UniProt P14842).
T2 construct: To the receptor fraction of the cerebral cortex were added a test compound and 0.3 nM of [^3H] ketanserin; from tissue; host or cells: rat cerebral cortex membrane fraction
Kind of data set: Binding test on [3H] ketanserin, cerebral cortex receptor fraction. Details: species or system SD rats. The settings on record: 0.3 nM [3H] ketanserin, 37° C. 15 min, read-out: 5HT2.

The next data set deals with α1 adrenalin receptor. Kind of data set: Binding test on [3H] prazosin, cerebral cortex receptor fraction. Details: species or system SD rats. The note with it: rat cerebral cortex receptor fraction, about 0.2 nM [3H] prazosin, room temperature 60 min; read-out: α 1.

Each structure is given as a SMILES string. Counter-ions that a name gives are not always drawn.

One may read the melting point as the temperature of the solid-liquid transition.

T2 sequence (P14842 whole entry): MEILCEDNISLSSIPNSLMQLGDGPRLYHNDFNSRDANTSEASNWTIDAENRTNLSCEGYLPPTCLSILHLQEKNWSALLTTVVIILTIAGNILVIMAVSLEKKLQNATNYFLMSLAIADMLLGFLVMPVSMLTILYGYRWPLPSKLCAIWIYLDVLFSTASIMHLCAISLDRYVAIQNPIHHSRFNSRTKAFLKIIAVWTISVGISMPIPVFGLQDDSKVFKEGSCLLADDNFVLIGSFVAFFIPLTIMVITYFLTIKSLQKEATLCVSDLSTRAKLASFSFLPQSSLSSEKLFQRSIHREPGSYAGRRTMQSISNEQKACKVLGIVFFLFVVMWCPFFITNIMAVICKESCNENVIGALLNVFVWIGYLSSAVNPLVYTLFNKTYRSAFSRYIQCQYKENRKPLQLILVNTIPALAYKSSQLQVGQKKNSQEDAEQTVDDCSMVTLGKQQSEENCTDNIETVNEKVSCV
Experimental for α1 adrenalin receptor: As radioisotope-labeled compounds, use was made of the following reagents (mfd. by NEN). • 3) [^3H] […] Prazosin.
Use was made of SD rats aged 6 to 8 weeks.
The rats were sacrificed by dcapitation to extirpate the cerebra.
Each mixture was homogenized by using a Teflon glass homogenizer and centrifuged as 1,000× g for 10 min. The supernatant thus obtained was further centrifuged at 20,000× g for 20 min. […] After centrifuging at 20,000× g for 20 min, the obtained precipitate was further suspended and centrifuged twice each in the same manner. […] This receptor fraction was stored at −80° C. until using.
IC50 was calculated by the probit method, while Ki was determined in accordance with the following formula: Ki=IC50(1+c/Kd) wherein c represents the concentration of the radioisotope-labeled compound, and Kd represents the dissociation constant of the radioisotope-labeled compound with respect to the receptor determined by Scatchard's analysis. (Binding test on [^3H] prazosin)
To the receptor fraction of the cerebral cortex were added a test compound and about 0.2 nM of [^3H] prazosin and the resultant mixture was incubated at room temperature for 60 min. Next, it was filtered through a glass filter with the use of a cell harvester. After washing the glass filter with 50 mM Tris hydrochloride (pH 7.4), the radioactivity of the receptor was measured with a liquid scintillation counter. The binding detected in the presence of 10 μM of phentolamine was referred to as the nonspecific binding.

For the compound `CCN1CCN(c2nc(-c3ccc(C4CCOCC4)s3)cc3ccccc23)CC1.Cl` [Example 166, 3-[2-(tetrahydropyran-4-yl]thiophen-5-yl]-1-(4-ethylpiperazin-1-yl)isoquinoline hydrochloride], the melting point lay within 251 to 253 °C. Moreover, at serotonin 1A receptor, the Ki turned out to be 81.9 nM. Also, the Ki on serotonin 2 receptor came out at 11.5 nM. As for `CCN1CCN(c2nc(CCc3ccc(OCCO)cc3)cc3ccccc23)CC1` [Example 109, 1-(1-Ethylpiperazin-4-yl)-3-[4-(2-hydroxyethoxy)phenethyl]isoquinoline], the Ki at α1 adrenalin receptor was > 2000 nM. Turning to `CCN1CCN(c2nc(-c3ccc(/C=N/O)cc3)cc3ccccc23)CC1.Cl` [Example 61, (E)-1-(4-Ethylpiperazin-1-Yl)-3-(4-Hydroxyiminomethylphenyl)Isoquinoline Hydrochloride], the melting point was 243 °C (dec.). In addition, the Ki at serotonin 1A receptor is 11.7 nM. Besides, on serotonin 2 receptor, the Ki was found to be 8.2 nM. Turning to `CCN1CCN(c2nc(-c3ccc(/C=N\O)cc3)cc3ccccc23)CC1.Cl` [Example 60, (Z)-1-(4-Ethylpiperazin-1-Yl)-3-(4-Hydroxyiminomethylphenyl)Isoquinoline Hydrochloride], the melting point was 239 °C (dec.). The Ki on serotonin 1A receptor came to 21.3 nM. The Ki at serotonin 2 receptor came to 9.1 nM. Consider `CCN1CCN(c2nc(-c3ccc(OCCO)cc3)cc3sccc23)CC1` [Example 286, dihydrochloride], for which the Ki on α1 adrenalin receptor was determined as 305 nM. Turning to `CCN1CCN(c2nc(-c3ccc(CCCO)c(C(N)=O)c3)cc3ccccc23)CC1` [Example 31, 3-[3-carboxamide-4-(3-hydroxypropyl)phenyl]-1-(4-ethylpiperazin-1-yl)isoquinoline], the melting point is 213 to 218 °C (dec.). At serotonin 1A receptor, the Ki is 10.7 nM. The Ki on serotonin 2 receptor came to 30.3 nM.

In the case of `COc1ccc(-c2cc3ccccc3c(N3CCN(CCO)CC3)n2)cc1` [Example 242, 1-[4-(2-hydroxyethyl)piperazin-1-yl]-3-(4-methoxyphenyl)isoquinoline Dihydrochloride], the Ki at α1 adrenalin receptor was 1790 nM.

Take `CCN1CCN(c2nc(-c3cc(OC)c(OC)cc3OC)cc3ccccc23)CC1.Cl` [Example 16, 1-(4-ethylpiperazin-1-yl)-3-(2,4,5-trimethoxyphenyl)isoquinoline dihydrochloride]: the melting point fell in the range of 158 to 160 °C. At serotonin 1A receptor, the Ki is 30 nM. Also, the Ki on serotonin 2 receptor amounted to 44 nM. As for `CCN1CCN(c2nc(-c3ccc(OC)cc3)cc3occc23)CC1` (as salt: oxalate), the melting point was 170 to 172 °C (dec.).

In the case of `CCN1CCN(c2nc(-c3ccc([C@@H]4C[C@H](O)CCO4)cc3)cc3ccccc23)CC1` (relative stereo) (as salt: hydrochloride) [Example 401, 1-(4-Ethylpiperazin-1-yl)-3-[4-(cis-4-Hydroxytetrahydropyran-2-yl)Phenyl]Isoquinoline Dihydrochloride], the melting point was 148 to 149.5 °C. Consider `CCN1CCN(c2nc(-c3ccc(OC)cc3)c(Cl)c3ccccc23)CC1` (as salt: hydrochloride), for which the melting point was 200.5 to 201.5 °C (dec.).

Compound `CCN1CCN(c2nc(-c3ccc(C(O)CO)cc3)cc3ccccc23)CC1` (stereo not drawn) (as salt: hydrochloride) [Example 387, 1-(4-Ethylpiperazin-1-yl)-3-[4-(1,2-Dihydroxyethyl)Phenyl]Isoquinoline Dihydrochloride] registered a melting point of 132 to 133 °C. Same read-out and setting: then `CCCN(C)S(=O)(=O)c1ccc(-c2cc3ccccc3c(N3CCN(CC)CC3)n2)cc1` (as salt: hydrochloride) [Example 358, 1-(4-ethylpiperazin-1-yl)-3-[4-(N-methyl-N-propylsulfamoyl)phenyl]isoquinoline dihydrochloride], with 199.5 to 200.5 °C (dec.); and `CCC(O)c1ccc(-c2cc3sccc3c(N3CCN(CC)CC3)n2)cc1` (stereo not drawn) (as salt: oxalate) [Example 282, 4-(4-ethylpiperazin-1-yl)-6-[4-(1-hydroxypropyl)phenyl]thieno-[3,2-c]pyridine oxalate], with 130 to 131 °C. Same read-out and setting: with `CCN1CCN(c2nc(-c3ccn(CCO)n3)cc3ccccc23)CC1` (as salt: hydrochloride) the figure was 134 to 140 °C; with `CCN1CCN(c2nc(C#CC(=O)c3ccccc3)cc3ccccc23)CC1` (as salt: oxalate) [Example 184, 1-(1-Ethylpiperazin-4-Yl)-3-Benzoylethynylisoquinoline Oxalate], 161 to 163 °C. On to `COc1ccc(-c2cc3ccccc3c(N3CCC(N4CCCCC4)CC3)n2)cc1` (as salt: hydrochloride) [Example 325, 1-[4-(piperidin-1-yl)piperidine-1-yl]-3-(4-methoxyphenyl)isoquinoline dihydrohcloride], for which the melting point is 223 to 238 °C. Compound `CCN1CCN(c2nc(-c3ccc(OCCO)nc3)cc3ccccc23)CC1` (as salt: hydrochloride) [Example 125, 1-(1-Ethylpiperazin-4-yl)-3-[2-(2-Hydroxyethoxy)Pyridin-5-yl]Isoquinoline] displayed a melting point of 137 to 142 °C. Same read-out and setting: then `CCN1CCN(c2nc(-c3ccc(CCCO)cc3)cc3ccsc23)CC1` (as salt: hydrochloride) [Example 432, 7-(4-ethylpiperazin-1-yl)-5-[4-(3-hydroxypropyl)phenyl]thieno[2,3-c]pyridine hydrochloride], with 112 to 113 °C; and `CCN1CCN(c2nc(-c3ccc(CCC(C)O)cc3)cc3ccsc23)CC1` (stereo not drawn) (as salt: hydrochloride) [Example 440, 7-(4-ethylpiperazin-1-yl)-5-[4-(3-hydroxybutyl)phenyl]thieno[2,3-c]pyridine dihydrochloride], with 110.5 to 112 °C. Same read-out and setting: then `CCCCc1ccc(-c2cc3ccccc3c(N3CCN(CC)CC3)n2)cc1` (as salt: hydrochloride), with 190 to 192 °C (dec.); and `CCN1CCN(c2nc(-c3ccc(O[C@@H](C)CO)cc3)cc3ccsc23)CC1` (as salt: hydrochloride) [Example 438, 7-(4-ethylpiperazin-1-yl)-5-[4-(1-methyl-2-hydroxyethoxy)phenyl]thieno[2,3-c]pyridine dihydrochloride], with 126 to 127 °C. Regarding `CCCN1CCN(c2nc(-c3ccc(OCC(C)(C)O)cc3)cc3sccc23)CC1` [Example 289, 6-[4-(2-methyl-2-hydroxypropoxy)phenyl]-4-(4-propylpiperazin-1-yl)thieno[3,2-c]pyridine hydrochloride], on α1 adrenalin receptor, the Ki turned out to be 1310 nM.

`CCN1CCN(c2nc(-c3ccc(C(=O)NC4CCCC4)cc3)cc3ccsc23)CC1` (as salt: hydrochloride) [Example 453, 7-(4-ethylpiperazin-1-yl)-5-[4-(N-cyclopentylcarbamoyl)phenyl]thieno[2,3-c]pyridine dihydrochloride]: the melting point lay in the range of 148 to 149 °C. `CCN1CCN(c2nc(C#Cc3ncccc3OCCO)cc3ccccc23)CC1` (as salt: hydrochloride) [Example 188, 1-(1-Ethylpiperazin-4-Yl)-3-[3-(2-Hydroxyethoxy)-2-Pyridyl]Ethynylisoquinoline] yielded a melting point of 153 to 159 °C.

For the compound `CCN1CCN(c2nc(-c3ccc(SC)cc3)cc3ccccc23)CC1` (as salt: hydrochloride) [Example 341, 1-(4-ethylpiperazin-1-yl)-3-(4-methylthiophenyl)isoquinoline dihdyrochloride], the melting point is 215 to 218 °C (dec.).

The values are drawn from US6875761B2 (Eisai Co., Ltd., priority 1997, dated 2005).
